Here are results for five molecules from BindingDB's records for doi:10.1021/jm960486n (Eli Lilly, 1997).

In assay [1] the target is Phospholipase A2 group IB, pancreatic (Homo sapiens) (UniProt P04054). Kind of assay: Inhibitory activity against human pancreatic Phospholipase A2.
The target of assay [2] is Phospholipase A2, pancreatic group IB (Sus scrofa). The assay can be described thus: Inhibitory activity against porcine pancreatic Phospholipase A2.

Sequence of Phospholipase A2 group IB, pancreatic (Homo sapiens) (P04054 whole entry, looked up): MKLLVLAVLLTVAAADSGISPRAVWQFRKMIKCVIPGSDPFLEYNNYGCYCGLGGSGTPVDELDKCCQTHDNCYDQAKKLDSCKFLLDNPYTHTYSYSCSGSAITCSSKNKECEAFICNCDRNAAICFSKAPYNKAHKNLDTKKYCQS

Regarding `Cc1c(CC(N)=O)c2c(OCC(=O)O)cccc2n1Cc1ccccc1-c1ccccc1` [Sodium; (1-biphenyl-2-ylmethyl-3-carbamoylmethyl-2-methyl-1H-indol-4-yloxy)-acetate], the IC50 in assay [1] worked out at 4.09 µM; in assay [2], 0.014 µM. For `NC(=O)Cc1c(Br)n(Cc2ccccc2)c2ccc(OCCCP(=O)(O)O)cc12` [[3-(1-Benzyl-2-bromo-3-carbamoylmethyl-1H-indol-5-yloxy)-propyl]-phosphonic acid] the same measures were 6.2 µM and 2.2 µM. The like results for `Cc1c(CC(N)=O)c2c(OCC(=O)O)cccc2n1Cc1cccc(Cl)c1` [Sodium; [3-carbamoylmethyl-1-(3-chloro-benzyl)-2-methyl-1H-indol-4-yloxy]-acetate] were, in that order, 1.2 µM and 0.02 µM. The like results for `Cc1c(CC(N)=O)c2cc(OCc3ccccc3C(=O)O)ccc2n1Cc1ccccc1` [2-(1-Benzyl-3-carbamoylmethyl-2-methyl-1H-indol-5-yloxymethyl)-benzoic acid] were, in that order, 22.5 µM and 7.5 µM. The molecule `NC(=O)Cc1c(Br)n(Cc2ccccc2)c2ccc(OCCCC(=O)O)cc12` [4-(1-Benzyl-2-bromo-3-carbamoylmethyl-1H-indol-5-yloxy)-butyric acid] returned a concentration for half-maximal inhibition (IC50) in assay [1] of 15.9 µM.
